Test results reported in patent US10919916B2, “Boron-containing small molecules” (Bill & Melinda Gates Foundation, priority 2016, dated 2021).
Values after ≈ are worked out from the molar mass of the structure shown. Read-outs that look alike come from different tables or passages of the source.

Assays:
[1] = system: Staphylococcus aureus, MRSA (ATCC 33591); test: Antibacterial MIC assay (microbroth dilution, CLSI); format: cell-based; details: read-out: MIC Staphylococcus aureus, MRSA (ATCC 33591)
Excerpt: (§1) All MIC testing of bacteria followed the Clinical and Laboratory Standards Institute (CLSI) guidelines for antimicrobial testing of aerobic bacteria (Methods for Dilution Antimicrobial Susceptibility Tests for Bacteria that Grow Aerobically; Approved Standard—Tenth Edition, M07-A10; Performance Standards for Antimicrobial Susceptibility Testing; Twenty-fifth Informational Supplement, M100-S25).
(§2) Briefly, the microbroth dilution MIC method was used to quantitatively measure the in vitro antibacterial activity of a compound against a given bacterial isolate. The following bacterial strains were evaluated: Staphylococcus aureus, MRSA (ATCC 33591) and Streptococcus pneumoniae (ATCC 49619). Bacteria were grown in cation-adjusted Mueller-Hinton broth, with additions as required per species growth requirements (e.g. 3% lysed horse blood for fastidious organisms such as S. pneumoniae). A direct colony suspension in saline was prepared from colonies on an overnight agar plate to achieve a turbidity equivalent to 0.5 McFarland standard, which was subsequently diluted into the assay plate to achieve 5×10^5 CFU/mL. Assays plates were prepared by 2-fold dilution of compound across the plate and included a positive growth control.

[2] = system: Streptococcus pneumoniae (ATCC 49619); test: as above; format: cell-based
Excerpt: as §1
as §2, with “The following bacterial strains were evaluated: Staphylococcus aureus, MRSA (ATCC 33591) and Streptococcus pneumoniae (ATCC 49619).” left out

[3] = ATCC49619, read-out: MIC Streptococcus pneumoniae (ATCC 49619)

| Structure (SMILES) | MIC [1] | MIC [2, 3] | MIC ([1]; microbroth dilution, cation-adjusted Mueller-Hinton broth, 35° C. for 16-20 hours) | MIC ([2]; ATCC49619, microbroth dilution, 3% lysed horse blood, 35° C. for 16-20 hours, read-out: MIC Streptococcus pneumoniae (ATCC 49619)) |
| --- | --- | --- | --- | --- |
| C=C[C@]1(C)C[C@@H](OC(=O)CNCc2ccc3c(c2)B(O)OC3(C)C)[C@]2(C)[C@H](C)CC[C@]3(CCC(=O)[C@H]32)[C@@H](C)[C@@H]1O [Compound 60, (3aR,4R,5R,7S,8S,9R,9aS,12R)-8-hydroxy-4,7,9,12-tetramethyl-3-oxo-7-vinyldecahydro-4,9a-propanocyclopenta[8]annulen-5-yl ((1-hydroxy-3,3-dimethyl-1,3-dihydrobenzo[c][1,2]oxaborol-6-yl)methyl)glycinate] | 0.5 to 2 µg/mL (≈ 0.907 to 3.63 µM) | 4 to 32 µg/mL (≈ 7.25 to 58 µM) |  |  |
| C=C[C@]1(C)C[C@@H](OC(=O)CNc2cc(CN)c3c(c2)B(O)OC3)[C@]2(C)[C@H](C)CC[C@]3(CCC(=O)[C@H]32)[C@@H](C)[C@@H]1O [Compound 50, (3aR,4R,5R,7S,8S,9R,9aS,12R)-8-hydroxy-4,7,9,12-tetramethyl-3-oxo-7-vinyldecahydro-4,9a-propanocyclopenta[8]annulen-5-yl (4-(aminomethyl)-1-hydroxy-1,3-dihydrobenzo[c][1,2]oxaborol-6-yl)glycinate] | 0.5 to 2 µg/mL (≈ 0.929 to 3.71 µM) | < 0.25 µg/mL |  |  |
| C=C[C@]1(C)C[C@@H](OC(=O)COc2ccc3c(c2F)B(O)N(C(C)=O)N=C3)[C@]2(C)[C@H](C)CC[C@]3(CCC(=O)[C@H]32)[C@@H](C)[C@@H]1O [Compound 89, (3aR,4R,5R,7S,8S,9R,9aS,12R)-8-hydroxy-4,7,9,12-tetramethyl-3-oxo-7-vinyldecahydro-4,9a-propanocyclopenta[8]annulen-5-yl 2-((2-acetyl-8-fluoro-1-hydroxy-1,2-dihydrobenzo[d][1,2,3]diazaborinin-7-yl)oxy)acetate] | < 0.25 µg/mL | < 0.25 µg/mL |  |  |
| C=C[C@]1(C)C[C@@H](OC(=O)COc2ccc3c(c2)COB3O)[C@]2(C)[C@H](C)CC[C@]3(CCC(=O)[C@H]32)[C@@H](C)[C@@H]1O [Compound 32, (3aR,4R,5R,7S,8S,9R,9aS,12R)-8-hydroxy-4,7,9,12-tetramethyl-3-oxo-7-vinyldecahydro-4,9a-propanocyclopenta[8]annulen-5-yl 2-((1-hydroxy-1,3-dihydrobenzo[c][1,2]oxaborol-5-yl)oxy)acetate] | < 0.25 µg/mL | 0.5 to 2 µg/mL (≈ 0.98 to 3.92 µM) |  |  |
| C=C[C@]1(C)C[C@@H](OC(=O)COc2ccc3c(c2C)B(O)N(C(=O)OC)N=C3)[C@]2(C)[C@H](C)CC[C@]3(CCC(=O)[C@H]32)[C@@H](C)[C@@H]1O [Compound 94, Methyl 1-hydroxy-7-(2-(((3aR,4R,5R,7S,8S,9R,9aS,12R)-8-hydroxy-4,7,9,12-tetramethyl-3-oxo-7-vinyldecahydro-4,9a-propanocyclopenta[8]annulen-5-yl)oxy)-2-oxoethoxy)-8-methylbenzo[d][1,2,3]diazaborinine-2(1H)-carboxylate] | < 0.25 µg/mL | 0.5 to 2 µg/mL (≈ 0.841 to 3.36 µM) |  |  |
| C=C[C@]1(C)C[C@@H](OC(=O)CNCc2ccc3c(c2)B(O)OC3)[C@]2(C)[C@H](C)CC[C@]3(CCC(=O)[C@H]32)[C@@H](C)[C@@H]1O [Compound 59, (3aR,4R,5R,7S,8S,9R,9aS,12R)-8-hydroxy-4,7,9,12-tetramethyl-3-oxo-7-vinyldecahydro-4,9a-propanocyclopenta[8]annulen-5-yl ((1-hydroxy-1,3-dihydrobenzo[c][1,2]oxaborol-6-yl)methyl)glycinate] | 0.5 to 2 µg/mL (≈ 0.955 to 3.82 µM) | 4 to 32 µg/mL (≈ 7.64 to 61.1 µM) |  |  |
| C=C[C@]1(C)C[C@@H](OC(=O)COc2ccc3c(c2)B(O)OC3C)[C@]2(C)[C@H](C)CC[C@]3(CCC(=O)[C@H]32)[C@@H](C)[C@@H]1O (stereo partly drawn) [Compound 19, (3aR,4R,5R,7S,8S,9R,9aS,12R)-8-hydroxy-4,7,9,12-tetramethyl-3-oxo-7-vinyldecahydro-4,9a-propanocyclopenta[8]annulen-5-yl 2-((1-hydroxy-3-methyl-1,3-dihydrobenzo[c][1,2]oxaborol-6-yl)oxy)acetate] | < 0.25 µg/mL | 0.5 to 2 µg/mL (≈ 0.953 to 3.81 µM) |  |  |
| C=C[C@]1(C)C[C@@H](OC(=O)COc2ccc3c(c2)B(O)N(C(C)=O)N=C3)[C@]2(C)[C@H](C)CC[C@]3(CCC(=O)[C@H]32)[C@@H](C)[C@@H]1O [Compound 87, (3aR,4R,5R,7S,8S,9R,9aS,12R)-8-hydroxy-4,7,9,12-tetramethyl-3-oxo-7-vinyldecahydro-4,9a-propanocyclopenta[8]annulen-5-yl 2-((2-acetyl-1-hydroxy-1,2-dihydrobenzo[d][1,2,3]diazaborinin-7-yl)oxy)acetate] | < 0.25 µg/mL | < 0.25 µg/mL |  |  |
| C=C[C@]1(C)C[C@@H](OC(=O)COc2ccc3c(c2)B(O)OCC3)[C@]2(C)[C@H](C)CC[C@]3(CCC(=O)[C@H]32)[C@@H](C)[C@@H]1O [Compound 69, (3aR,4R,5R,7S,8S,9R,9aS,12R)-8-hydroxy-4,7,9,12-tetramethyl-3-oxo-7-vinyldecahydro-4,9a-propanocyclopenta[8]annulen-5-yl 2-((1-hydroxy-3,4-dihydro-1H-benzo[c][1,2]oxaborinin-7-yl)oxy)acetate] |  |  | < 0.25 µg/mL | < 0.25 µg/mL |
| C=C[C@]1(C)C[C@@H](OC(=O)COc2ccc3c(c2)B(O)N(C(=O)OC)N=C3)[C@]2(C)[C@H](C)CC[C@]3(CCC(=O)[C@H]32)[C@@H](C)[C@@H]1O [Compound 91, Methyl 1-hydroxy-7-(2-(((3aR,4R,5R,7S,8S,9R,9aS,12R)-8-hydroxy-4,7,9,12-tetramethyl-3-oxo-7-vinyldecahydro-4,9a-propanocyclopenta[8]annulen-5-yl)oxy)-2-oxoethoxy)benzo[d][1,2,3]diazaborinine-2(1H)-carboxylate] | < 0.25 µg/mL | 0.5 to 2 µg/mL (≈ 0.861 to 3.45 µM) |  |  |
| C=C[C@]1(C)C[C@@H](OC(=O)CNc2ccc3c(c2)B(O)OC3)[C@]2(C)[C@H](C)CC[C@]3(CCC(=O)[C@H]32)[C@@H](C)[C@@H]1O [Compound 45, (3aR,4R,5R,7S,8S,9R,9aS,12R)-8-hydroxy-4,7,9,12-tetramethyl-3-oxo-7-vinyldecahydro-4,9a-propanocyclopenta[8]annulen-5-yl (1-hydroxy-1,3-dihydrobenzo[c][1,2]oxaborol-6-yl)glycinate] | < 0.25 µg/mL | 0.5 to 2 µg/mL (≈ 0.981 to 3.93 µM) |  |  |
| C=C[C@]1(C)C[C@@H](OC(=O)CNc2ccc3c(c2)B(O)OC3(C)C)[C@]2(C)[C@H](C)CC[C@]3(CCC(=O)[C@H]32)[C@@H](C)[C@@H]1O [Compound 51, (3aR,4R,5R,7S,8S,9R,9aS,12R)-8-hydroxy-4,7,9,12-tetramethyl-3-oxo-7-vinyldecahydro-4,9a-propanocyclopenta[8]annulen-5-yl (1-hydroxy-3,3-dimethyl-1,3-dihydrobenzo[c][1,2]oxaborol-6-yl)glycinate] | < 0.25 µg/mL | 0.5 to 2 µg/mL (≈ 0.93 to 3.72 µM) |  |  |
| C=C[C@]1(C)C[C@@H](OC(=O)CSc2ccc3c(c2F)B(O)OC3)[C@]2(C)[C@H](C)CC[C@]3(CCC(=O)[C@H]32)[C@@H](C)[C@@H]1O [Compound 65, (3aR,4R,5R,7S,8S,9R,9aS,12R)-8-hydroxy-4,7,9,12-tetramethyl-3-oxo-7-vinyldecahydro-4,9a-propanocyclopenta[8]annulen-5-yl 2-((7-fluoro-1-hydroxy-1,3-dihydrobenzo[c][1,2]oxaborol-6-yl)thio)acetate] | < 0.25 µg/mL | 0.5 to 2 µg/mL (≈ 0.918 to 3.67 µM) |  |  |
| C=C[C@]1(C)C[C@@H](OC(=O)COc2ccc3c(c2)B(O)N(S(C)(=O)=O)N=C3)[C@]2(C)[C@H](C)CC[C@]3(CCC(=O)[C@H]32)[C@@H](C)[C@@H]1O [Compound 75, (3aR,4R,5R,7S,8S,9R,9aS,12R)-8-hydroxy-4,7,9,12-tetramethyl-3-oxo-7-vinyldecahydro-4,9a-propanocyclopenta[8]annulen-5-yl 2-((1-hydroxy-2-(methylsulfonyl)-1,2-dihydrobenzo[d][1,2,3]diazaborinin-7-yl)oxy)acetate] | < 0.25 µg/mL | 0.5 to 2 µg/mL (≈ 0.833 to 3.33 µM) |  |  |
| C=C[C@]1(C)C[C@@H](OC(=O)CS(=O)(=O)c2ccc3c(c2)B(O)OC3)[C@]2(C)[C@H](C)CC[C@]3(CCC(=O)[C@H]32)[C@@H](C)[C@@H]1O [Compound 64, (3aR,4R,5R,7S,8S,9R,9aS,12R)-8-hydroxy-4,7,9,12-tetramethyl-3-oxo-7-vinyldecahydro-4,9a-propanocyclopenta[8]annulen-5-yl 2-((1-hydroxy-1,3-dihydrobenzo[c][1,2]oxaborol-6-yl)sulfonyl)acetate] | < 0.25 µg/mL | 0.5 to 2 µg/mL (≈ 0.895 to 3.58 µM) |  |  |
| C=C[C@]1(C)C[C@@H](OC(=O)COc2c(F)cc3c(c2F)B(O)OC3)[C@]2(C)[C@H](C)CC[C@]3(CCC(=O)[C@H]32)[C@@H](C)[C@@H]1O [Compound 5, (3aR,4R,5R,7S,8S,9R,9aS,12R)-8-hydroxy-4,7,9,12-tetramethyl-3-oxo-7-vinyldecahydro-4,9a-propanocyclopenta[8]annulen-5-yl 2-((5,7-difluoro-1-hydroxy-1,3-dihydrobenzo[c][1,2]oxaborol-6-yl)oxy)acetate] | < 0.25 µg/mL | < 0.25 µg/mL |  |  |
